As to `CC(=O)Nc1ccc(O)cc1`, the solubility (mole fraction) amounted to 0.15 (in PEGDME 250, 293.15 K); 0.174 (in PEGDME 250, 298.15 K); 0.196 (in PEGDME 250, 303.15 K); 0.216 (in PEGDME 250, 308.15 K); 0.236 (in PEGDME 250, 313.15 K); 0.00151 (in water, 293.15 K). The solubility (mole fraction) by setting is: (in water, 298.15 K) 0.00201; (in water, 303.15 K) 0.0022; (in water, 308.15 K) 0.00288; (in water, 313.15 K) 0.00334.

For `O=C(O)c1ccccc1O`, the solubility (mole fraction) runs as follows: (in PEGDME 250, 293.15 K) 0.347; (in PEGDME 250, 298.15 K) 0.382; (in PEGDME 250, 303.15 K) 0.415; (in PEGDME 250, 308.15 K) 0.45; (in PEGDME 250, 313.15 K) 0.486; (in water, 293.15 K) 0.000205. In addition, the solubility (mole fraction) reads like this: (in water, 298.15 K) 0.000251; (in water, 303.15 K) 0.000306; (in water, 308.15 K) 0.000372; (in water, 313.15 K) 0.00046.

By solubility (mole fraction) is commonly meant the moles of solute divided by all moles in the saturated solution.

These data come from BigSolDB 2.1.
